{
  "source": "patent US20050106258A1",
  "about": "“Pharmacology and manufacturing method of Bombyx moriL related bioproduct” (priority 2003, published 2005)",
  "type_in_all_cases": "in vivo",
  "key": {"[1]": {"system": "nitric oxide (NO)", "assay": "Nitric oxide contents in the corpora cavernosa of penis in male rats (nitrate reductase method)", "source_text": "It has been approved in literatures that nitric oxide (NO) is formed in the endothelial cells in blood vessels and NO plays as an important signal transmitter in many physical activities of the human body. Nitric Oxide exists in many organs and tissues such as brain, blood vessels, liver, lung, pancreas, immune and reproductive systems. On the basis of No on wide-ranging regulative activities in the human physiological process, the Nitric Oxide contents, in the Sera and the Corpora Cavernosa of Penis in 50 normal male rats, were measured by nitrate reductase method for two dosages of product mainly consisting of bombyx moriL and Sildenafil Citrate(Viagra).On a half and one hour after the drug administrations, the variations of NO content were compared with the two drugs treated animals as a whole situation. The results are: (1) In the rat serum of the tested drug groups, there are distinct NO content differences with statistical […] compared the No contents of the low dosage groups of the two drugs with the control group's, and there are very distinct NO content differences with statistical significance (p<0.001) in the high dosage groups of the two drugs. […]"}, "[2]": {"system": "normal males", "assay": "Arterial blood flow rate of corpus cavernosum penis of normal males (Doppler color ultrasound)", "conditions": "for MAX blood flow rate, change 1 h after administration, X ± SD: P < 0.001; for increasement of MAX (cavernous arterial maximal blood flow rate): 1 hour after administration vs before", "source_text": "AIM: The physiological mechanism of penile erection expresses that NO is excreted in the cavernosum during sexual extraction, whose direct function is to activate GC, which catalyzes GPT to cGMP, so the smooth muscle of cavernosum is relax, and the inflowed blood volume is increased, then penis is erected. In this experiment, Doppler color-ultrasound instrument was used to observe the influence of product mainly consisting of bombyx moriL and viagra on the arterial blood flow rate of corpus cavernosum penis of normal males, to estimate the alternation of inflowed blood volume of cavernosum.\nTested Medicie: No.981005, light-blue capsule, 200 mg/capsule.\nSildenafilcitrate, viagra: light-blue rhombic table, 100 mg/tablet. The tablet was triturated to fine powder, and amylum was added. After adequate mixture, the powder was filled into 200 mg capsule. (The same specification as product mainly consisting of bombyx moriL).There was 50 mg sildenafilcitrate in every 8 capsules.\n(§1) Subjects: 46 normal males, age 23-29, provided.\n(§2) Methods: Double-blind, auto-control and mutual control design. The influence of the two medicines on arterial blood flow rate of cavernosum was contrasted, Based on ages, the objects were randonmly divided into 4 groups, and there were 11-12 people in one group. Before administration, arterial blood flow of corpus cavernosum penis was estimated respectively by Doppler color ultrasound instrument (Acuson, American, 128×p/10 c),and blood pressure was also measured. Then 2 groups were respectively given high dosage Medicine, that is, 8 capsules product mainly consisting of bombyx moriL and 8 capsules of viagra, and the dose-effect relationship was observed. Blood pressure and cavernous arterial blood flow of every group were estimated respectively at I and 2 hours after administration, and the time-effect relationship of product mainly consisting of bombyx moriL and viagra was observed. Whether the alternation before and after administration and the difference between groups were significant was convinced here."}, "[3]": {"system": "normal males", "assay": "Blood pressure of normal males", "conditions": "for Systolic Pressure, change 1 h after administration, X ± SD: P < 0.01", "source_text": "as §1, §2"}, "[4]": {"conditions": "Viagra 25 mg, n=11, before administration 1.09 ± 0.30"}, "[5]": {"conditions": "Viagra 25 mg, n=11, before administration 3.24 ± 1.02"}, "[6]": {"conditions": "Viagra 50 mg, n=12, before administration 1.25 ± 0.62"}, "[7]": {"conditions": "Viagra 50 mg, n=12, before administration 3.37 ± 0.79"}, "[8]": {"conditions": "Viagra 25 mg, n=11, before administration 81.8 ± 6.4"}, "[9]": {"conditions": "Viagra 25 mg, n=11, before administration 120.5 ± 10.6"}, "[10]": {"conditions": "Viagra 50 mg, n=12, before administration 78.6 ± 10.7"}, "[11]": {"conditions": "Viagra 50 mg, n=12, before administration 117.7 ± 9.8"}},
  "note": "Where a name gives a salt, the structure may show the parent alone.",
  "data": [
    {"smiles": "CCCc1nn(C)c2c(=O)[nH]c(-c3cc(S(=O)(=O)N4CCN(C)CC4)ccc3OCC)nc12", "note": "[Viagra, Sildenafil citrate]", "values": [
      {"measurement": "NO contents X ± SD, corpora cavernosa", "setting": "[1]; Viagra high 12 mg/kg, P < 0.05 vs negative control (29.2 ± 5.37)", "value": "48.52 ± 17.95", "unit": "µmol/L"},
      {"measurement": "NO contents X ± SD, corpora cavernosa", "setting": "[1]; Viagra low 6 mg/kg, P < 0.01 vs negative control (29.2 ± 5.37)", "value": "44.88 ± 9.47", "unit": "µmol/L"},
      {"measurement": "MIN blood flow rate, change 1 h after administration, X ± SD", "setting": "[2]; [4]", "value": "+0.27 ± 1.01 cm/s"},
      {"measurement": "MIN blood flow rate, change 2 h after administration, X ± SD", "setting": "[2]; [4]", "value": "+0.36 ± 0.81 cm/s"},
      {"measurement": "TAMX blood flow rate, change 2 h after administration, X ± SD", "setting": "[2]; Viagra 25 mg, n=11, before administration 2.64 ± 1.12", "value": "0.18 ± 1.17", "unit": "cm/s"},
      {"measurement": "TAMX blood flow rate, change 1 h after administration, X ± SD", "setting": "[2]; Viagra 25 mg, n=11, before administration 2.64 ± 1.12, P < 0.05", "value": "+1.36 ± 1.43 cm/s"},
      {"measurement": "PI (pulsation index), change 1 h after administration, X ± SD", "setting": "[2]; [5]", "value": "−0.19 ± 1.16"},
      {"measurement": "PI (pulsation index), change 2 h after administration, X ± SD", "setting": "[2]; [5]", "value": "+0.10 ± 0.85"},
      {"measurement": "MAX blood flow rate, change 1 h after administration, X ± SD", "setting": "[2]; Viagra 25 mg, n=11, before administration 9.55 ± 2.58", "value": "+4.36 ± 2.98 cm/s"},
      {"measurement": "MIN blood flow rate, change 1 h after administration, X ± SD", "setting": "[2]; [6]", "value": "+0.17 ± 0.72 cm/s"},
      {"measurement": "MIN blood flow rate, change 2 h after administration, X ± SD", "setting": "[2]; [6]", "value": "+0.17 ± 0.91 cm/s"},
      {"measurement": "TAMX blood flow rate, change 2 h after administration, X ± SD", "setting": "[2]; Viagra 50 mg, n=12, before administration 2.67 ± 0.78", "value": "0.50 ± 0.80", "unit": "cm/s"},
      {"measurement": "TAMX blood flow rate, change 1 h after administration, X ± SD", "setting": "[2]; Viagra 50 mg, n=12, before administration 2.67 ± 0.78, P < 0.01", "value": "+1.43 ± 1.27 cm/s"},
      {"measurement": "PI (pulsation index), change 1 h after administration, X ± SD", "setting": "[2]; [7]", "value": "+0.24 ± 0.84"},
      {"measurement": "PI (pulsation index), change 2 h after administration, X ± SD", "setting": "[2]; [7]", "value": "−0.33 ± 0.72"},
      {"measurement": "MAX blood flow rate, change 1 h after administration, X ± SD", "setting": "[2]; Viagra 50 mg, n=12, before administration 9.58 ± 1.08", "value": "+5.67 ± 4.31 cm/s"},
      {"measurement": "MAX blood flow rate, change 2 h after administration, X ± SD", "setting": "[2]; Viagra 50 mg, n=12, before administration 9.58 ± 1.08, P < 0.05", "value": "+1.75 ± 2.63 cm/s"},
      {"measurement": "increasement of MAX (cavernous arterial maximal blood flow rate)", "setting": "[2]; high dosage groups", "value": 59.2, "unit": "%"},
      {"measurement": "increasing rate of TAMX (cavernous average blood flow rate)", "setting": "[2]; low and high dosage groups, 1 hour after administration, P<0.01", "value": "51.5-53.6%"},
      {"measurement": "increasement of MAX (cavernous arterial maximal blood flow rate)", "setting": "[2]; low dosage groups", "value": 46.6, "unit": "%"},
      {"measurement": "rate of hypotensive function", "setting": "[3]; \"High dosage\" as printed, remarkable only at 1 hour after administration", "value": 8.3, "unit": "%"},
      {"measurement": "Diastolic Pressure, change 1 h after administration, X ± SD", "setting": "[3]; [8]", "value": "−2.7 ± 4.7", "unit": "mmHg"},
      {"measurement": "Diastolic Pressure, change 2 h after administration, X ± SD", "setting": "[3]; [8]", "value": "−1.8 ± 4.6", "unit": "mmHg"},
      {"measurement": "Systolic Pressure, change 2 h after administration, X ± SD", "setting": "[3]; [9]", "value": "−3.5 ± 6.2", "unit": "mmHg"},
      {"measurement": "Systolic Pressure, change 1 h after administration, X ± SD", "setting": "[3]; [9]", "value": "−10.0 ± 6.3", "unit": "mmHg"},
      {"measurement": "Diastolic Pressure, change 1 h after administration, X ± SD", "setting": "[3]; [10]", "value": "−3.4 ± 7.2", "unit": "mmHg"},
      {"measurement": "Diastolic Pressure, change 2 h after administration, X ± SD", "setting": "[3]; [10]", "value": "−2.0 ± 6.4", "unit": "mmHg"},
      {"measurement": "Systolic Pressure, change 2 h after administration, X ± SD", "setting": "[3]; [11]", "value": "−2.7 ± 5.6", "unit": "mmHg"},
      {"measurement": "Systolic Pressure, change 1 h after administration, X ± SD", "setting": "[3]; [11]", "value": "−7.3 ± 6.1", "unit": "mmHg"},
      {"measurement": "decreasing rate of systolic pressure (sp)", "setting": "[3]; high dosage, 1 h after administration, p<0.01", "value": 6.2, "unit": "%"}
    ]}
  ]
}
